Source: publication PMC9975698, “Hyperoside alleviates toxicity of β-amyloid via endoplasmic reticulum-mitochondrial calcium signal transduction cascade in APP/PS1 double transgenic Alzheimer's disease mice” (Redox Biology, 2023)

Legend:
APP/PS1 mice [1] = assay: Thioflavin S staining of Aβ plaques in brain; assay type: in vivo; conditions: cortex and hippocampus, HYP 20/40/80 mg/kg nasal, 8 weeks
Procedure: All animal care and experimental procedures were performed in accordance with the “Institutional Animal Care and User Committee Guidelines” of the Macau University of Science and Technology. APP/PSEN1 (APP/PS1) mice (N000175) were purchased from the Nanjing Institute of Biomedical Sciences, Nanjing University, China, weighing 25 ± 5 g. The animals were housed in a temperature-controlled room with a 12 h light/dark cycle and given ad libitum food and water. Male mice were randomly divided into the following 6 experimental groups. (a) wild-type group (n = 6), (b) APP/PS1 group (n = 6), (c) HYP (20 mg/kg group) (n = 7), (d) HYP (40 mg/kg) group (n = 8), (e) HYP (80 mg/kg) group (n = 8) and (f) memantine (MEM) (10 mg/kg) positive control group (n = 8). HYP was dissolved in the solvent containing 10% DMSO, 40% PEG300 and 5% Tween-80 in PBS, and administrated via nasal injection for every 3 days with a volume of 0.5 μL/g of body weight for 8 consecutive weeks. Paraffin sections of the brain were washed three times with PBS after dewaxing and then stained with THS dissolved in 50% alcohol for 7 min, followed by 50% alcohol solution for washing. Sections were then air-dried and sealed with neutral gel for microscopic observation. Images were captured by API DeltaVision Live‐cell Imaging System (Applied Precision Inc., DC, USA).

APP and APP-β = assay: Western blot of APP and APP-β in HT22 cells; assay type: cell-based
Procedure: After HYP treatment, the cells were lysed with RIPA. Protein concentrations were determined by Bio-Rad protein assay (Bio-Rad Laboratories, CA, USA). After electrophoretic separation, the gels were blotted and stained with primary antibodies. Binding of antibodies was visualized with peroxidase-coupled secondary antibodies using ECL Western Blotting detection reagents (Invitrogen, Scotland, UK). Band intensities were quantified using ImageJ software. Data were obtained from three independent experiments.

HT22 cells = assay: ATP content measurement by LC-MS/MS; assay type: cell-based; conditions: Aβ aggregates with HYP 20, 40, 80 μM, 24 h
Procedure: HT22 cells were co-treated with Aβ aggregates and HYP (20–80 μM) for 24 h and washed with PBS. Each digested sample was re-suspended in 10 mL of ice-cold PBS, followed by centrifugation for 5 min (300 g, 4 °C). Cell pellets were then treated with 85% cold methanol (2 × 10^6 cells / 100 μL) containing 2 μM ATP-^13C10,^15N5, then vortexed for 1 min and placed on ice for 10 min. After centrifugation (13,000 g) at 4 °C for 15 min, the supernatant was transferred into another tube. The derivatization reaction was initiated by adding 75 μL of derivatization reagent MTBSTFA into 200 μL of cell lysis with 85% methanol and completed over 5 min with consistent vortex. Derivatization samples were then centrifuged (13,000 g) at 4 °C for 10 min, and 25 μL of the supernatant was injected into LC-MS/MS system for analysis.

APP/PS1 mice [2] = assay: Y-maze test; assay type: in vivo; conditions: HYP 20/40/80 mg/kg nasal, every 3 days, after 7 weeks
Procedure: All animal care and experimental procedures were performed in accordance with the “Institutional Animal Care and User Committee Guidelines” of the Macau University of Science and Technology. APP/PSEN1 (APP/PS1) mice (N000175) were purchased from the Nanjing Institute of Biomedical Sciences, Nanjing University, China, weighing 25 ± 5 g. The animals were housed in a temperature-controlled room with a 12 h light/dark cycle and given ad libitum food and water. Male mice were randomly divided into the following 6 experimental groups. (a) wild-type group (n = 6), (b) APP/PS1 group (n = 6), (c) HYP (20 mg/kg group) (n = 7), (d) HYP (40 mg/kg) group (n = 8), (e) HYP (80 mg/kg) group (n = 8) and (f) memantine (MEM) (10 mg/kg) positive control group (n = 8). HYP was dissolved in the solvent containing 10% DMSO, 40% PEG300 and 5% Tween-80 in PBS, and administrated via nasal injection for every 3 days with a volume of 0.5 μL/g of body weight for 8 consecutive weeks. Y-maze tests assess cognitive changes, short-term spatial working memory (by spontaneous alternation), and exploratory activity (by total number of arm choices) of mice. […] The number of total arm choices and sequence of arm choices were recorded. The percentage of alternation can be calculated as the ratio of total number of alternations / the number of arms entered x 100%. […]

APP/PS1 mice [3] = assay: Dot blot of Aβ forms in cortex and hippocampus lysates; assay type: in vivo
Procedure: 4 μL of prepared cell or animal sample protein solutions were dotted for adsorption onto methanol-pre-activated PVDF membranes and then blocked with 5% non-fat dry milk in Tris-buffered saline and Tween 20 for 1 h. The samples were incubated overnight at 4 °C with anti-amyloid fibril primary antibody [mOC87] (Abcam, MA, USA), anti-amyloid oligomer A11 (Invitrogen, CA, USA) or purified anti-β-amyloid (1–16) antibody (clone 6E10) (Biolegend, CA, USA) (1:1000), followed by HRP-conjugated secondary antibody. Protein bands were detected using Super Signal Sensitive ECL Western Blotting Detection Reagent (Beyotime, Beijing, China) and observed using a gel imaging device (Amersham Imager 800, GE, Tokyo, Japan). All animal care and experimental procedures were performed in accordance with the “Institutional Animal Care and User Committee Guidelines” of the Macau University of Science and Technology. APP/PSEN1 (APP/PS1) mice (N000175) were purchased from the Nanjing Institute of Biomedical Sciences, Nanjing University, China, weighing 25 ± 5 g. The animals were housed in a temperature-controlled room with a 12 h light/dark cycle and given ad libitum food and water. Male mice were randomly divided into the following 6 experimental groups. […]

## O=c1c(O[C@@H]2O[C@H](CO)[C@H](O)[C@H](O)[C@H]2O)c(-c2ccc(O)c(O)c2)oc2cc(O)cc(O)c12 [HYP, Quercetin-3-O-β-D-galactopyranoside]
APP/PS1 mice [1]
  level of Aβ plaques (ThS): reduced the level of Aβ plaques in the cortex and hippocampus of APP/PS1 mice in a dose-dependent manner
APP and APP-β
  protein level of APP and APP-β: reduced the protein level of both APP and APP-β
HT22 cells
  ATP content: rescued the Aβ-induced decrease in mitochondrial ATP
APP/PS1 mice [2]
  spatial working memory (Y-maze alternation): resumed to a level comparable to WT mice group
APP/PS1 mice [3]
  level of oligomeric, fibrillar and total Aβ (dot blot): reduced the level of both oligomeric and fibrillar form of Aβ, without altering the level of total Aβ
